Assay results: PubChem BioAssay (NCI)
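All cell lines were grown in 96-well plates and treated with compound for 48 hours. TGI denotes the concentration required for complete inhibition of growth.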

Assays:
Experiment in all cases: NCI-60 cell line screen, 48 h
BT-549 breast = system: BT-549 breast
IGROV1 ovarian = system: IGROV1 ovarian
SN12C renal = system: SN12C renal
OVCAR-5 ovarian = system: OVCAR-5 ovarian
NCI-H522 lung = system: NCI-H522 lung
MDA-MB-435 = system: MDA-MB-435
OVCAR-3 ovarian = system: OVCAR-3 ovarian
MDA-MB-231 breast = system: MDA-MB-231 breast
HOP-18 NSCLC = system: HOP-18 NSCLC
M19-MEL melanoma = system: M19-MEL melanoma

Compound | TGI (BT-549 breast) [µM] | TGI (IGROV1 ovarian) [µM] | TGI (SN12C renal) [µM] | TGI (OVCAR-5 ovarian) [µM] | TGI (NCI-H522 lung) [µM] | TGI (MDA-MB-435) [µM] | TGI (OVCAR-3 ovarian) [µM] | TGI (MDA-MB-231 breast) [µM] | TGI (HOP-18 NSCLC) [µM] | TGI (M19-MEL melanoma) [µM]
COc1cccc(NC(=O)CC(=O)NN)c1 | > 100 | > 100 | > 100 | > 100 | > 100 | > 100 | > 100 | > 100 |  | 
COCN1C(=O)[C@@H]2CCCN2C(=O)c2ccc(N)cc21 | > 100 | > 100 | > 100 | > 100 | > 100 | > 100 | > 100 | > 100 |  | 
COC(=O)/C=C(C)/C=C\COC1CCCCO1 (stereo unspecified) | > 100 | > 100 | > 100 | > 100 | > 100 | > 100 | > 100 | > 100 |  | 
CNC(=O)OCc1cnc([N+](=O)[O-])n1C | > 100 | > 100 | > 100 | > 100 | > 100 | > 100 | > 100 | > 100 |  | 
O=C(NNC(=O)c1ccco1)c1ccco1 | > 100 | > 100 | > 100 | > 100 | > 100 | > 100 | > 100 | > 100 |  | 
Nc1nc(N)c2nc(CN(C=O)c3ccc(C(=O)O)cc3)cnc2n1 | > 94.7 | > 100 | > 100 | > 100 | > 100 | > 100 | > 100 | > 100 |  | 
O=C(/C=C/c1ccc(OCc2ccccc2)cc1)NCc1ccc(C(=O)NCCc2ccccc2)cc1 | > 100 | > 100 | > 100 | > 100 | > 100 | > 100 | > 100 | > 100 |  | 
COC(=O)c1ccccc1C1CN=NC12Cc1ccc(C)cc1C2=O (stereo unspecified) | > 100 | > 100 | > 100 | > 100 | > 100 | > 100 | > 100 | > 100 |  | 
NC(=S)NNCC(=O)CC(O)(C(F)(F)F)C(F)(F)Cl (stereo unspecified) | > 100 | > 100 |  | > 100 | > 100 | > 100 | > 100 | > 100 |  | 
C[N+](C)(CCNc1ccc(NCC[N+](C)(C)Cc2ccc([N+](=O)[O-])cc2)c2c1C(=O)c1c(O)ccc(O)c1C2=O)Cc1ccc([N+](=O)[O-])cc1 | > 50 | > 50 | > 50 | > 50 | > 50 | > 50 | > 50 | > 50 |  | 
CNC(=S)N/N=C/C(C)=N/NC(=S)NC |  |  | > 100 | > 100 | > 100 |  | > 100 |  | > 100 | > 100
CCN(CC)c1c(C(C)(C)C)c(=O)n2ccsc2c1OC(C)=O | 30.3 | 31.2 | 32.6 | 29.7 | 27.7 | 32.5 | 30.8 | 32.5 |  | 
O=c1c(-c2nc3ccccc3c3ccccc3c2=O)nc2ccccc2c2ccccc12 | > 100 | > 100 | 99.1 | > 100 | > 100 | 89 | 97.3 | > 100 |  | 
